Test results taken from patent publication US9527885B2, “Hepatitis C virus inhibitors” (BRISTOL-MYERS SQUIBB COMPANY, priority 2011, dated 2016).
Where two headings read alike, the source gives them in different places.

Legend:
[1] = test system: HCV genotype 1b (Con1) replicon in HUH-7 cells; test: HCV replicon luciferase reporter assay, genotype 1b; type: cell-based; details: 3 days incubation
Procedure, shortened: (§1)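 Twenty-point, threefold compound titrations (0.5% DMSO) were incubated 3 days at 37 °C with 3.0×10^3 HUH-7 cells/well in 4% FCS. The cells stably carried luciferase replicons: genotype 1b Con1 (S1179I) or 1a H77 (NS3 P1496L, NS5A S2204I). Renilla signal was read after 2 h with 7.5 μM EnduRen, and EC50 was taken from a four-parameter logistic fit. Cytotoxicity (CC50) was measured by Cell Titer-Blue, 8 h.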

[2] = test system: HCV genotype 1a (H77 strain) replicon in HUH-7 cells; test: HCV replicon luciferase reporter assay, genotype 1a; type: cell-based; details: 3 days incubation
Procedure, shortened: as §1

[3] = Hepatitis C virus, 72 h, HCV genotype 1b replicon luciferase reporter, range class, read-out: LE_1b (EC50, range)
[4] = Hepatitis C virus, Huh-7, 72 h, HCV genotype 1a replicon luciferase reporter, range class, read-out: LE_1a (EC50, range)
[5] = Hepatitis C virus, 72 h, HCV genotype 1b replicon luciferase, class symbols, read-out: LE_1b (EC50, range)
[6] = Hepatitis C virus, Huh-7, 72 h, HCV genotype 1a replicon luciferase, class symbols, read-out: LE_1a (EC50, range)
[7] = Hepatitis C virus, 72 h, HCV genotype 1b replicon luciferase, range class, read-out: LE_1b (EC50, range)
[8] = Hepatitis C virus, Huh-7, 72 h, HCV genotype 1a replicon luciferase, range class, read-out: LE_1a (EC50, range)

| Molecule | EC50 [1, 5] [nM] | EC50 [2, 6] [nM] | other results |
| --- | --- | --- | --- |
| COCCOc1cc2c(Cl)cccc2c(O[C@@H]2C[C@H]3C(=O)N[C@]4(C(=O)NS(=O)(=O)C5(C)CC5)C[C@H]4/C=C\CC[C@@H](C)C[C@@H](C)[C@H](NC(=O)OC(C)(C)C(F)(F)F)C(=O)N3C2)n1 [Compound 1114, 1,1,1-trifluoro-2-methylpropan-2-yl ((2R,6S,7R,9R,13aS,14aR,16aS,Z)-2-((5-chloro-3-(2-methoxyethoxyl)isoquinolin-1-yl)oxy)-7,9-dimethyl-14a-(((1-methylcyclopropyl)sulfonyl)carbamoyl)-5,16-dioxo-1,2,3,5,6,7,8,9,10,11,13a,14,14a,15,16,16a-hexadecahydrocyclopropa[e]pyrrolo[1,2-a][1,4]diazacyclopentadecin-6-yl)carbamate] |  |  | EC50 [1, 3]: < 5.46 nM; EC50 [2, 4]: < 5.46 nM |
| CC[C@@H]1C[C@H](C)CC/C=C\[C@@H]2C[C@@]2(C(=O)NS(=O)(=O)C2(C)CC2)NC(=O)[C@@H]2C[C@@H](Oc3nccc4cc(OC)ccc34)CN2C(=O)[C@H]1NC(=O)OC(C)(C)C [Compound 4203, tert-butyl (2R,6S,7R,9R,13aS,14aR,16aS,Z)-7-ethyl-2-(6-methoxyisoquinolin-1-yloxy)-9-methyl-14a-(1-methylcyclopropylsulfonylcarbamoyl)-5,16-dioxo-1,2,3,5,6,7,8,9,10,11,13a,14,14a,15,16,16a-hexadecahydrocyclopropa[e]pyrrolo[1,2-a][1,4]diazacyclopentadecin-6-ylcarbamate] | < 5.46 | < 5.46 |  |
| COc1ccc2c(O[C@@H]3C[C@H]4C(=O)N[C@]5(C(=O)NS(=O)(=O)C6CC6)C[C@H]5/C=C\CC[C@H](C)C[C@@H](C)[C@H](NC(=O)O[C@@H]5C[C@@H]6C[C@@H]6C5)C(=O)N4C3)nc(-c3ccc(OC(C)C)cn3)cc2c1 [Compound 5208, (1R,3r,5S)-bicyclo[3.1.0]hexan-3-yl ((2R,6S,7R,9S,13aS,14aR,16aS,Z)-14a-((cyclopropylsulfonyl)carbamoyl)-2-((3-(5-isopropoxypyridin-2-yl)-6-methoxyisoquinolin-1-yl)oxy)-7,9-dimethyl-5,16-dioxo-1,2,3,5,6,7,8,9,10,11,13a,14,14a,15,16,16a-hexadecahydrocyclopropa[e]pyrrolo[1,2-a][1,4]diazacyclopentadecin-6-yl)carbamate] |  |  | EC50 [1, 7]: < 5.46 nM; EC50 [2, 8]: < 5.46 nM |
| COc1cnc(O[C@@H]2C[C@H]3C(=O)N[C@]4(C(=O)NS(=O)(=O)C5(C)CC5)C[C@H]4/C=C\CC[C@H](C)C[C@@H](C)[C@H](NC(=O)OC(C)(C)C)C(=O)N3C2)c2ccccc12 [Compound 4058, tert-butyl (2R,6S,7R,9S,13aS,14aR,16aS,Z)-2-(4-methoxyisoquinolin-1-yloxy)-7,9-dimethyl-14a-(1-methylcyclopropylsulfonylcarbamoyl)-5,16-dioxo-1,2,3,5,6,7,8,9,10,11,13a,14,14a,15,16,16a-hexadecahydrocyclopropa[e]pyrrolo[1,2-a][1,4]diazacyclopentadecin-6-ylcarbamate] | < 5.46 | < 5.46 |  |
| CC[C@@H]1C[C@H](C)CC/C=C\[C@@H]2C[C@@]2(C(=O)NS(=O)(=O)C2(CF)CC2)NC(=O)[C@@H]2C[C@@H](Oc3nccc4c5c(ccc34)N(C)CCO5)CN2C(=O)[C@H]1NC(=O)OC(C)(C)C(C)(F)F [Compound 5324, 3,3-difluoro-2-methylbutan-2-yl ((2R,6S,7R,9R,13aS,14aR,16aS,Z)-7-ethyl-14a-(((1-(fluoromethyl)cyclopropyl)sulfonyl)carbamoyl)-9-methyl-2-((4-methyl-3,4-dihydro-2H-[1,4]oxazino[2,3-f]isoquinolin-7-yl)oxy)-5,16-dioxo-1,2,3,5,6,7,8,9,10,11,13a,14,14a,15,16,16a-hexadecahydrocyclopropa[e]pyrrolo[1,2-a][1,4]diazacyclopentadecin-6-yl)carbamate] |  |  | EC50 [1, 7]: < 5.46 nM; EC50 [2, 8]: < 5.46 nM |
| COc1cnc(O[C@@H]2C[C@H]3C(=O)N[C@]4(C(=O)NS(=O)(=O)C5CC5)C[C@H]4/C=C\CC[C@@H](C)C[C@@H](C)[C@H](NC(=O)OC(C)(C)C(F)(F)F)C(=O)N3C2)c2ccccc12 [Compound 3, 1,1,1-trifluoro-2-methylpropan-2-yl ((2R,6S,7R,9R,13aS,14aR,16aS,Z)-14a-((cyclopropylsulfonyl)carbamoyl)-2-((4-methoxyisoquinolin-1-yl)oxy)-7,9-dimethyl-5,16-dioxo-1,2,3,5,6,7,8,9,10,11,13a,14,14a,15,16,16a-hexadecahydrocyclopropa[e]pyrrolo[1,2-a][1,4]diazacyclopentadecin-6-yl)carbamate] |  |  | EC50 [1, 3]: < 5.46 nM; EC50 [2, 4]: < 5.46 nM |
| CCOc1ccc2c(O[C@@H]3C[C@H]4C(=O)N[C@]5(C(=O)NS(=O)(=O)C6(C)CC6)C[C@H]5/C=C\CC[C@H](C)C[C@@H](C)[C@H](NC(=O)OC(C)(C)C(F)(F)F)C(=O)N4C3)nccc2c1 [Compound 5135, 1,1,1-trifluoro-2-methylpropan-2-yl ((2R,6S,7R,9S,13aS,14aR,16aS,Z)-2-((6-ethoxyisoquinolin-1-yl)oxy)-7,9-dimethyl-14a-(((1-methylcyclopropyl)sulfonyl)carbamoyl)-5,16-dioxo-1,2,3,5,6,7,8,9,10,11,13a,14,14a,15,16,16a-hexadecahydrocyclopropa[e]pyrrolo[1,2-a][1,4]diazacyclopentadecin-6-yl)carbamate] | < 5.46 | 4.82 to 103 |  |
| C[C@@H]1CC/C=C\[C@@H]2C[C@@]2(C(=O)NS(=O)(=O)C2(C)CC2)NC(=O)[C@@H]2C[C@@H](Oc3nccc4c(N5CCOCC5)cccc34)CN2C(=O)[C@@H](NC(=O)OC(C)(C)C(C)(F)F)[C@H](C)C1 [Compound 5126, 3,3-difluoro-2-methylbutan-2-yl ((2R,6S,7R,9R,13aS,14aR,16aS,Z)-7,9-dimethyl-14a-(((1-methylcyclopropyl)sulfonyl)carbamoyl)-2-((5-morpholinoisoquinolin-1-yl)oxy)-5,16-dioxo-1,2,3,5,6,7,8,9,10,11,13a,14,14a,15,16,16a-hexadecahydrocyclopropa[e]pyrrolo[1,2-a][1,4]diazacyclopentadecin-6-yl)carbamate] | < 5.46 | < 5.46 |  |
| C[C@@H]1CCC[C@H](O)[C@@H]2C[C@@]2(C(=O)NS(=O)(=O)C2(C)CC2)NC(=O)[C@@H]2C[C@@H](Oc3ncc(OC4CC4)c4ccccc34)CN2C(=O)[C@@H](NC(=O)OC(C)(C)C(F)(F)F)[C@H](C)C1 [Compound 2002, 1,1,1-trifluoro-2-methylpropan-2-yl ((2R,6S,7R,9R,13S,13aR,14aR,16aS)-2-((4-cyclopropoxyisoquinolin-1-yl)oxy)-13-hydroxy-7,9-dimethyl-14a-(((1-methylcyclopropyl)sulfonyl)carbamoyl)-5,16-dioxooctadecahydrocyclopropa[e]pyrrolo[1,2-a][1,4]diazacyclopentadecin-6-yl)carbamate] |  |  | EC50 [1, 3]: 4.82 to 103 nM; EC50 [2, 4]: 4.82 to 103 nM |
| COc1ccc2c(O[C@@H]3CC4C(=O)N[C@]5(C(=O)NS(=O)(=O)C6(F)CC6)C[C@H]5/C=C\CC[C@@H](C)C[C@@H](C)[C@H](NC(=O)C(C)(C)C)C(=O)N4C3)nccc2c1 (some centres unmarked) [Compound 4015] | < 5.46 | < 5.46 |  |
| CC[C@@H]1C[C@H](C)CC/C=C\[C@@H]2C[C@@]2(C(=O)NS(=O)(=O)C2(C)CC2)NC(=O)[C@@H]2C[C@@H](Oc3ncc(OC)c4ccccc34)CN2C(=O)[C@H]1NC(=O)OC(C)(C)C(F)(F)F [Compound 4174, 1,1,1-trifluoro-2-methylpropan-2-yl (2R,6S,7R,9R,13aS,14aR,16aS,Z)-7-ethyl-2-(4-methoxyisoquinolin-1-yloxy)-9-methyl-14a-(1-methylcyclopropylsulfonylcarbamoyl)-5,16-dioxo-1,2,3,5,6,7,8,9,10,11,13a,14,14a,15,16,16a-hexadecahydrocyclopropa[e]pyrrolo[1,2-a][1,4]diazacyclopentadecin-6-ylcarbamate] | < 5.46 | < 5.46 |  |
| CCOc1cnc(O[C@@H]2C[C@H]3C(=O)N[C@]4(C(=O)NS(=O)(=O)C5(C)CC5)C[C@H]4/C=C\CC[C@@H](C)C[C@@H](C)[C@H](NC(=O)OC(C)(C)C(C)(F)F)C(=O)N3C2)c2ccccc12 [Compound 5113, 3,3-difluoro-2-methylbutan-2-yl ((2R,6S,7R,9R,13 aS,14aR,16aS,Z)-2-((4-ethoxyisoquinolin-1-yl)oxy)-7,9-dimethyl-14a-(((1-methylcyclopropyl)sulfonyl)carbamoyl)-5,16-dioxo-1,2,3,5,6,7,8,9,10,11,13a,14,14a,15,16,16a-hexadecahydrocyclopropa[e]pyrrolo[1,2-a][1,4]diazacyclopentadecin-6-yl)carbamate] | < 5.46 | < 5.46 |  |
| 1,1,1-trifluoro-2-methylpropan-2-yl ((2R,6S,7R,9S,13aS,14aR,16aS,Z)-7-ethyl-14a-(((1-(fluoromethyl)cyclopropyl)sulfonyl)carbamoyl)-9-methyl-2-((4-methyl-3,4-dihydro-2H-[1,4]oxazino[2,3-f]isoquinolin-7-yl)oxy)-5,16-dioxo-1,2,3,5,6,7,8,9,10,11,13a,14,14a,15,16,16a-hexadecahydrocyclopropa[e]pyrrolo[1,2-a][1,4]diazacyclopentadecin-6-yl)carbamate [Compound 5319] |  |  | EC50 ([1]; HCV genotype 1b replicon luciferase, read-out: LE_1b (EC50)): 14.2 nM; EC50 ([2]; HCV genotype 1a replicon luciferase, read-out: LE_1a (EC50)): 33.6 nM |
